Results from article PMC2011122 (British Journal of Cancer, 1982).
Read-outs that look alike come from different tables or passages of the source.

Columns and labels:
[1] = Polymorphic acetylation in humans; assay type: in vivo; details: conclusion from urinary excretion in 10 phenotyped volunteers
[2] = set-up: method as in Coombes et al. (1980); details: after AG, ref Coombes et al. (1980), cited from earlier work
[3] = cited from earlier work
mammary carcinoma = tested on: mammary carcinoma; set-up: method as in Smith et al., 1978; details: postmenopausal women; ref Smith et al., 1978; cited from earlier work
bovine adrenal cells = tested on: bovine adrenal cells; set-up: method as in Coombes et al., 1980; details: bovine adrenal cells in culture, ref Coombes et al., 1980, cited from earlier work; for Glucocorticoid production, % of the resting levels: 10 ug/ml
[4] = 24 h urinary excretion of AG and metabolites in volunteers given oral AG; details: oral AG 250 mg, 24 h urine, excreted as the named substance; for Percentage of the administered dose excreted in the urine during 24 h, mean, rapid (fast) acetylators: rapid acetylators of sulphadimidine (5 volunteers); for Percentage of the administered dose excreted in the urine during 24 h, mean, slow acetylators: slow acetylators of sulphadimidine (5 volunteers)
[5] = set-up: method as in Douglas & Nicholls, 1972; details: humans, urine; ref Douglas & Nicholls, 1972; cited from earlier work
[6] = 6 h urine after sulphadimidine
[7] = set-up: method as in Testa & Jenner, 1976; details: ref Testa & Jenner, 1976; cited from earlier work
[8] = set-up: method as in Hoffman & Tagmann, 1954; details: ref Hoffman & Tagmann, 1954; cited from earlier work
steroidogenesis = details: no reference given; cited from earlier work

For `CCC1(c2ccc(N)cc2)CCC(=O)NC1=O` (stereo not shown) [AG, aminoglutethimide], which “Acetylation polymorphism in humans” value [1] is on record?
Its value is “polymorphically acetylated”.

And the “Plasma level at 0.5 h, mean, slow acetylators” value ([2]; 4 slow acetylators)?
The value was 1.14 µg/mL.

And the “Plasma level at 0.5 h, mean, rapid acetylators” value ([2]; 5 rapid acetylators)?
Its value is 0.96 µg/mL.

And the “Plasma level at 2 h, mean, rapid acetylators” value ([2]; 5 rapid acetylators)?
The value was 0 to 60 µg/mL.

And the “Side effects in patients” value ([3]; patients, ref Smith et al., 1978)?
Its value is “skin rash and lethargy”.

What about the “Efficacy in the treatment of mammary carcinoma” value (mammary carcinoma) of the same compound?
The value was “effective agent”.

And the “Glucocorticoid production, % of the resting levels” value (bovine adrenal cells)?
Its value is 833%.

Which “Plasma level at 8 h, mean, slow acetylators” value ([2]; 4 slow acetylators) does the source give for `CCC1(c2ccc(NC(C)=O)cc2)CCC(=O)NC1=O` (stereo not shown) [N-acetylAG, N-Acetylaminoglutethimide] here?
Its value is 0 to 37 µg/mL.

And the “Percentage of the administered dose excreted in the urine during 24 h, mean, rapid (fast) acetylators” value (“Percentage … (fast) acetylators” for short) [4]?
The value was 8.8%.

What about the “Percentage of the administered dose excreted in the urine during 24 h, mean, slow acetylators” value (“Percentage … mean, slow acetylators” below) [4] of the same compound?
The value was 3.9%.

And the “Percentage of the administered dose of AG accounted for as urinary metabolite” value [5]?
Its value is 4-25%.

And the “Glucocorticoid production, % of the resting levels” value (bovine adrenal cells)?
Its value is 58%.

What about the “Inhibition of steroidogenesis (ability to reduce corticosteroid output)” value (bovine adrenal cells; compared with AG) of the same compound?
Its value is “poor inhibitor”.

With `CC(=O)Nc1ccc(S(=O)(=O)Nc2nc(C)cc(C)n2)cc1` [N-acetylsulphadimidine] as the compound, how does the “Percentage of the excreted dose as N-acetylsulphadimidine, rapid acetylators” value ([6]; rapid acetylators) read?
Its value is 89-96%.

And the “Percentage of the excreted dose as N-acetylsulphadimidine, slow acetylators” value ([6]; slow acetylators)?
The value was 62-68%.

For `CCC1(c2ccc(NC=O)cc2)CCC(=O)NC1=O` (stereo not shown) [N-formylAG, N-Formylaminoglutethimide], which “Percentage … (fast) acetylators” value [4] is on record?
Its value is 0.465%.

What about the “Percentage … mean, slow acetylators” value [4] of the same compound?
The value was 0.475%.

For `Nc1ccc(S(=O)(=O)c2ccc(N)cc2)cc1` [diaminodiphenylsulphone], which “Acetylation polymorphism in humans” value [7] is on record?
The value was “polymor- phically acetylated”.

Which Hypnotic activity [8] does the source give for `CCC1(c2ccccc2)CCC(=O)NC1=O` (stereo not shown) [glutethimide] here?
Its Hypnotic activity is “powerful hypnotic”.

What about the “Inhibitory effect on steroidogenesis” value (steroidogenesis) of the same compound?
The value was “little inhibitory effect”.

With `NNc1nncc2ccccc12` [hydralazine] as the compound, how does the Adverse side-effect induced ([3]; preponderantly in slow acetylators, ref Perry et al., 1970) read?
The Adverse side-effect induced was “lupus erythematosus”.

With `NNC(=O)c1ccncc1` [isoniazid] as the compound, how does the “Acetylation polymorphism in humans” value [7] read?
The value was “polymor- phically acetylated”.

Which “Percentage … (fast) acetylators” value [4] does the source give for `CCC1(c2ccc([N+](=O)[O-])cc2)CCC(=O)NC1=O` (stereo not shown) [nitroG, Nitroglutethimide] here?
The value was 0.047%.

What about the “Percentage … mean, slow acetylators” value [4] of the same compound?
The value was 0.10%.

Which “Acetylation polymorphism in humans” value [7] does the source give for `Cc1cc(C)nc(NS(=O)(=O)c2ccc(N)cc2)n1` [sulphamethazine] here?
Its value is “polymor- phically acetylated”.
